Results published in patent EP0405506A1, “Tetrapeptide type-B CCK receptor ligands” (ABBOTT LABORATORIES, priority 1989, dated 1991).
Like-named read-outs stand apart in the source and are kept apart here. Square brackets hold non-standard residues; d marks the D form. Peptide text beside a SMILES is read from it. * marks the point of attachment. Ala(1H-tetrazol-5-yl) = N[C@@H](Cc1nnn[nH]1)C(=O)O; 1Nal = N[C@@H](Cc1cccc2ccccc12)C(=O)O; 2Nal = N[C@@H](Cc1ccc2ccccc2c1)C(=O)O; Tic = O=C(O)[C@@H]1Cc2ccccc2CN1; Cha = N[C@@H](CC1CCCCC1)C(=O)O; NMeL = CN[C@@H](CC(C)C)C(=O)O; Cbz = O=C(OCc1ccccc1)*; Boc = CC(C)(C)OC(=O)*

How the values were obtained:
CCK receptors = biological target: T1, CCK receptors (Cavia porcellus, UniProt Q63931); assay: Radioligand binding ([125I]Bolton-Hunter CCK8) in guinea pig pancreatic membranes
T1 construct: Cortical and pancreatic membranes were prepared as described; from tissue; host or cells: guinea pig pancreas membranes
T1 sequence (Q63931 1-430): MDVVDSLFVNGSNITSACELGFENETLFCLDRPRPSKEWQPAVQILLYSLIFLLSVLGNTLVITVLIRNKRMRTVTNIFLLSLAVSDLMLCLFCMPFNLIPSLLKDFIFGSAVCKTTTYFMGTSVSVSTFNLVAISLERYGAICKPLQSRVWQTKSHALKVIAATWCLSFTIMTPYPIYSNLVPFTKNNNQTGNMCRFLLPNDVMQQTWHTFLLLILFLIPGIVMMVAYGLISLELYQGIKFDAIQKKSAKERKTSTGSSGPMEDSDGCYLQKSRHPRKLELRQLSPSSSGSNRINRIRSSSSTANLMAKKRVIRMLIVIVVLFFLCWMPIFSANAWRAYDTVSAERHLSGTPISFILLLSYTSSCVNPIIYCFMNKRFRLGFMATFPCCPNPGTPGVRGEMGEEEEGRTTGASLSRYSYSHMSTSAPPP
Method: EGTA, HEPES, BSA were purchased from Sigma Chemical Co. (St. Louis, MO). […] Male ginea pigs, 250 to 325 g, were obtained from Scientific Small Animal Laboratory and Farm (Arlington Heights, IL). Collangenase, code CLSPA was purchased from Worthington (Frehold, NJ).
The final BSA concentration was 0.1%. The cortical tissues were incubated at 30°C for 150 min. and pancreatic tissues were incubated at 37°C for 150 min. Incubations were terminated by filtration using Skatron Cell Harvester and SS32 microfiber filter mats. […] IC₅₀s were determined from the Hill analysis.

[1] = biological target: T2, CCK-B receptors on small cell lung cancer cell lines (Homo sapiens, UniProt P32239); assay: Measurement of [Ca++]i changes in NCI-H345 and H209 cell lines (indo-1 fluorescence); assay type: cell-based; conditions: read-out: Intrinsic Activity Relative to CCK-8
T2 construct: endogenous in cells; host or cells: NCI-H345 and H209 small cell lung cancer cells
T2 sequence (P32239 1-447): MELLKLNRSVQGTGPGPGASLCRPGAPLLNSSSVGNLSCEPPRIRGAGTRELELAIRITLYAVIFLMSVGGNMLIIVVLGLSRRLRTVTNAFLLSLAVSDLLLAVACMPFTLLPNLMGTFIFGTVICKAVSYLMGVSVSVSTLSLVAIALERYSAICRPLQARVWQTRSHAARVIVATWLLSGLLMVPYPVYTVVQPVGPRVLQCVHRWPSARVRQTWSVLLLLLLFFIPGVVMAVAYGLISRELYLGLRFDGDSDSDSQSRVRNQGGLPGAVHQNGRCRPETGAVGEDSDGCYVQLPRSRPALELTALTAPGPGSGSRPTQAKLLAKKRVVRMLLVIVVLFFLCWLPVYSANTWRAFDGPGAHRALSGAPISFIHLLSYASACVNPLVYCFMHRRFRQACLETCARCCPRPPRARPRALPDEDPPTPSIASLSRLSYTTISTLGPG
Method: Protocol for Measuring [Ca++]i Changes in NCI-H345 and H209 Cell Lines
Culture conditions were as described (D.G. Yoder, T.W. Moody, Peptides, 8, 103 (1987), except that the medium was modified to RPMI 1640 with 2.5% fetal bovine serum (heat inactivated), 5µg/l sodium selenite, 5 mg/l human transferrin, 5 mg/l insulin, penicillin (100 U/l) and streptomycin (100 µg/l). To measure intracellular Ca²⁺, cells were loaded with 1 µM of indo-1,AM, for 60 min at 37°C. The cells were centrifuged at 750 x g for 5 min and resuspended in 40 mL Buffer F (Dulbecco's phosphate buffered saline containing 0.1% glucose, pH 7.4). The cells were counted then twice washed by centrifugation. The final pellet was resuspended (approximately 1 x 10⁶ cells/mL) in Buffer F. The cells were thermally equilibrated in a thermostated cuvette (37°C) for 2 min prior to base-line fluorescence measurement. Fluorescence measurements were made with an SLM 8000C spectrofluorimeter equipped with magnetic microstirrer and polarizing filters. Measurements with indo-1-loaded cells were obtained at excitation wavelength of 350 nm and emission wavelength of 480 and 405 nM and the time interval for the measurements was 0.5 sec.

cortical CCK receptor = biological target: T3, cortical CCK receptor (Cavia porcellus, UniProt H0VZC5); assay: Radioligand binding ([125I]Bolton-Hunter CCK8) in guinea pig cerebral cortical membranes; conditions: displacement of [125I]BH-CCK8, cortical membranes, 30°C for 150 min, Hill analysis; read-out: IC₅₀ (nM) cortex
T3 construct: Cortical and pancreatic membranes were prepared as described; from tissue; host or cells: guinea pig cerebral cortex membranes
T3 sequence (H0VZC5 1-426): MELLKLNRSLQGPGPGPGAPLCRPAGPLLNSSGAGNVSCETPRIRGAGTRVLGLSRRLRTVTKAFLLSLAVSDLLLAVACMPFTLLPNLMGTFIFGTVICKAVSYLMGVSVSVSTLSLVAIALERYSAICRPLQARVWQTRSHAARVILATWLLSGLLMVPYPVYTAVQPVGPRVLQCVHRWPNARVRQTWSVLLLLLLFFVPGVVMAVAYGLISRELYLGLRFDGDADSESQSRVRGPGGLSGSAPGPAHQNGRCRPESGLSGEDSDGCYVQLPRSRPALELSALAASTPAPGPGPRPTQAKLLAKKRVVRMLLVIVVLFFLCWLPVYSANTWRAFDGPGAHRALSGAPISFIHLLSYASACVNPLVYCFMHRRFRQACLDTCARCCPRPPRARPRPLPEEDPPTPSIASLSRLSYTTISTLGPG
Excerpt: Protocol for Radioligand Binding Experiments in Guinea Pig Cerebral Cortical and Pancreatic Membrance Preparations
CCK8 (Asp-Tyr(SO₃H)-Met-Gly-Trp-Met-Asp-Phe-NH₂), bestatin and phosphormaidon were purchased from Peptide International (Louisville, KY). EGTA, HEPES, BSA were purchased from Sigma Chemical Co. (St. Louis, MO). [¹²⁵I]-Bolton-Hunter CCK8 (BH-CCK8) (specific activity, 2200 Ci, mmol) was obtained from New England Nuclear (Boston, MA). Male ginea pigs, 250 to 325 g, were obtained from Scientific Small Animal Laboratory and Farm (Arlington Heights, IL). Collangenase, code CLSPA was purchased from Worthington (Frehold, NJ).
Cortical and pancreatic membranes were prepared as described (Lin and Miller; J. Pharmacol. Exp. Ther. 232, 775-780, 1985). In brief, pancreas and cortex were removed and rinsed with ice-cold saline. Visible fat and connective tissues were removed from the pancreas. Tissues were weighed and homogenized in approximately 25 mL of ice-cold 50 mM Tris-HCl buffer, pH 7.4 at 4°C with a Brinkman Polytron for 30 sec, setting 7. The homogenates were centrifuged for 10 min at 1075 x g and the pellet was discarded. The supernantants were saved and centrifuged at 38,730 x g for 20 min. The resultant pellets were rehomogenized in 25 mL of 50 mM Tris-HCl buffer with a Teflon-glass homogenizer, 5 up and down strokes. The homogenates were centrifuged again at 38,730 x g for 20 min. The pellets were then resuspended in 20 mM HEPES, containing 1 mM EGTA, 118 mM NaCl, 4.7 mM KCl, 5mM MgCl₂, 100 uM bestatin, 3 uM phosphoramidon, pH 7.4 at 22°C with a Teflon-glass homogenizer, 15 up and down strokes. The resuspension volume used for the cortex was 15 mL per g of original wet weight and 60 mL per g for pancreas.
[¹²⁵I]Bolton-Hunter CCK8 and test compounds were diluted with HEPES-EGTA-salt buffer (see above) containing 0.5% bovine serum albumin (BSA). To 1 mL Skatron polystyrene tubes were added 25 uL of test compounds, 25 uL of [¹²⁵I]BH-CCK8 and 200 uL of membrane suspension. The final BSA concentration was 0.1%. The cortical tissues were incubated at 30°C for 150 min. and pancreatic tissues were incubated at 37°C for 150 min. Incubations were terminated by filtration using Skatron Cell Harvester and SS32 microfiber filter mats. The specific binding of [¹²⁵I]BH-CCK8, defined as the difference betwen binding in the absence and presence of 1 uM CCK8, was 85-90% of total binding in cortex and 90-95% in pancreas. IC₅₀s were determined from the Hill analysis.

[2] = displacement of [125I]BH-CCK8, pancreatic membranes, 37°C for 150 min, Hill analysis, read-out: IC₅₀ (uM) pancreas

Compound | IC50 (CCK receptors; [2]) [µM] | Emax [1] [%] | IC50 (cortical CCK receptor) [nM] | IC50 (CCK receptors) [µM]
CCC[C@H]1CCN(C(=O)[C@@H]2Cc3c[nH]c4cccc(c34)CC(=O)N2)[C@@H]1C(=O)N[C@@H](CC(=O)O)C(=O)N[C@@H](Cc1ccc2ccccc2c1)C(N)=O [Example 58, Ctp-Tpp-Asp-β-Nal-NH₂] | 11 | 100 | 1.9 | 
CC(C)C[C@H](NC(=O)[C@H](Cc1ccc2ccccc2c1)NC(=O)OC(C)(C)C)C(=O)N[C@@H](CC(=O)O)C(=O)N[C@@H](Cc1ccccc1)C(N)=O [Example 50, Boc-β-Nal-Leu-Asp-Phe-NH₂] (Boc-[2Nal]LDF-NH2) | 5 |  | 27 | 
CC(C)C[C@H](NC(=O)[C@H](Cc1c[nH]c2ccccc12)NC(=O)OC(C)(C)C)C(=O)N[C@@H](CC(=O)O)C(=O)N[C@@H](Cc1c[nH]c2ccccc12)C(N)=O [Example 42, Boc-Trp-Leu-Asp-Trp-NH₂] (Boc-WLDW-NH2) | 3.8 |  | 13 | 
CC(C)C[C@H](NC(=O)[C@H](Cc1c[nH]c2ccccc12)NC(=O)OC(C)(C)C)C(=O)N[C@@H](CC(=O)O)C(=O)N[C@@H](Cc1ccc2ccccc2c1)C(N)=O [Example 44, Boc-Trp-Leu-Asp-β-Nal-NH₂] (Boc-WLD[2Nal]-NH2) |  | 104 |  | 
CCC[C@H]1CCN(C(=O)[C@@H]2Cc3c[nH]c4cccc(c34)CC(=O)N2)[C@@H]1C(=O)N[C@@H](CC(=O)O)C(=O)N[C@@H](CC1CCCCC1)C(N)=O [Example 59, Ctp-Tpp-Asp-Cha-NH₂] | 4.3 |  | 0.9 | 
CCC[C@H]1CCN(C(=O)[C@H](Cc2c[nH]c3ccccc23)NC(=O)OC(C)(C)C)[C@@H]1C(=O)N[C@@H](CC(=O)O)C(=O)N[C@@H](Cc1ccccc1)C(N)=O [Example 47, Boc-Trp-Tpp-Asp-Phe-NH₂] | 89 |  | 1.2 | 
CC(C)C[C@H](NC(=O)[C@H](Cc1c[nH]c2ccccc12)NC(=O)OC(C)(C)C)C(=O)N[C@@H](CC(=O)O)C(=O)N[C@@H](CC1CCCCC1)C(N)=O [Example 43, Boc-Trp-Leu-Asp-Cha-NH₂] (Boc-WLD[Cha]-NH2) | 11 |  | 170 | 
CC(C)C[C@H](NC(=O)[C@@H]1Cc2c[nH]c3cccc(c23)CC(=O)N1)C(=O)N[C@@H](CC(=O)O)C(=O)N(C)[C@@H](Cc1ccccc1)C(N)=O [Example 6, Ctp-Leu-Asp-(NMe)Phe-NH₂] |  | 96 |  | 
CC(C)C[C@H](NC(=O)[C@H](Cc1c[nH]c2ccccc12)NC(=O)OC(C)(C)C)C(=O)N[C@@H](CC(=O)O)C(=O)N1Cc2ccccc2C[C@H]1C(N)=O [Example 2, Boc-Trp-Leu-Asp-Tiq-NH₂] (Boc-WLD[Tic]-NH2) |  |  | 37 | 19
CC(C)C[C@H](NC(=O)[C@@H]1Cc2c[nH]c3cccc(c23)CC(=O)N1)C(=O)N[C@@H](CC(=O)O)C(=O)NC(=Cc1ccccc1)C(N)=O [Example 23, Ctp-Leu-Asp-(dehydro)Phe-NH₂] | > 10 |  | 16 | 
CCC[C@H]1CCN(C(=O)[C@H](Cc2c[nH]c3ccccc23)NC(=O)OC(C)(C)C)[C@@H]1C(=O)N[C@@H](CC(=O)O)C(=O)N[C@@H](Cc1c[nH]c2ccccc12)C(N)=O [Example 54, Boc-Trp-Tpp-Asp-Trp-NH₂] | 3.7 |  | 5 | 
CC(C)C[C@H](NC(=O)[C@H](Cc1c[nH]c2ccccc12)NC(=O)OC(C)(C)C)C(=O)N[C@@H](Cc1nnn[nH]1)C(=O)N[C@@H](Cc1ccccc1)C(N)=O [Example 9, Boc-Trp-Leu-[β-1(2)H-tetrazol-5-yl]-L-alanyl-Phe-NH₂] (Boc-WL[Ala(1H-tetrazol-5-yl)]F-NH2) | > 1 |  | 13 | 

The remaining molecules from weak to strong by IC50 (CCK receptors; [2]), led by results:

IC50 (CCK receptors; [2]) [µM] | Emax [1] [%] | IC50 (cortical CCK receptor) [nM] | Compound | IC50 (CCK receptors) [µM]
3.5 | 100 | 2.6 | CCC[C@H]1CCN(C(=O)[C@@H]2Cc3c[nH]c4cccc(c34)CC(=O)N2)[C@@H]1C(=O)N[C@@H](CC(=O)O)C(=O)N(C)[C@@H](Cc1ccccc1)C(N)=O [Example 52, Ctp-Tpp-Asp-(NMe)Phe-NH₂] | 
2.7 |  | 2.5 | CC(C)C[C@H](NC(=O)[C@@H]1Cc2c[nH]c3cccc(c23)CC(=O)N1)C(=O)N[C@@H](CC(=O)O)C(=O)N[C@@H](Cc1ccccc1)C(N)=O [Example 1, CTP-Leu-Asp-Phe-NH₂] | 
1.8 |  | 54 | CC(C)C[C@H](NC(=O)[C@H](Cc1c[nH]c2ccccc12)NC(=O)OC(C)(C)C)C(=O)N[C@@H](CC(=O)O)C(=O)NC(=Cc1ccccc1)C(N)=O [Example 19, Boc-Trp-Leu-Asp-(dehydro)Phe-NH₂] | 
1.7 |  | 12 | CC(C)C[C@H](NC(=O)[C@H](Cc1c[nH]c2ccccc12)NC(=O)OC(C)(C)C)C(=O)N[C@@H](CC(=O)O)C(=O)N[C@@H](Cc1cccc2ccccc12)C(N)=O [Example 45, Boc-Trp-Leu-Asp-α-Nal-NH₂] (Boc-WLD[1Nal]-NH2) | 
1.4 | 109 | 0.4 | CCC[C@H]1CCN(C(=O)[C@@H]2Cc3c[nH]c4cccc(c34)CC(=O)N2)[C@@H]1C(=O)N[C@@H](CC(=O)O)C(=O)N[C@@H](Cc1cccc2ccccc12)C(N)=O [Example 57, Ctp-Tpp-Asp-α-Nal-NH₂] | 
1 |  | 5 | CC(C)C[C@@H](C(=O)N[C@@H](CC(=O)O)C(=O)N[C@@H](Cc1ccccc1)C(N)=O)N(C)C(=O)[C@H](Cc1c[nH]c2ccccc12)NC(=O)OCc1ccccc1 [Example 15, Cbz-Trp-(NMe)Leu-Asp-Phe-NH₂] (Cbz-W[NMeL]DF-NH2) | 
